Results reported in patent US20110212960A1, “NEW COMPOUNDS FOR THE TREATMENT OF CNS DISORDER” (BOEHRINGER INGELHEIM INTERNATIONAL GMBH, priority 2009, published 2011).
pIC50: −log10 of the molar value. Like-named read-outs stand apart in the source and are kept apart here. Values belong to the molecule of their own block, whether it stands above or below them.

Molecular target: T1, human PDE9A2 (Homo sapiens, UniProt O76083)
T1 construct: made in house; host or cells: Sf9 insect cells (infected; crude lysate used as enzyme source)
Assay: PDE9A2 enzymatic activity assay (scintillation proximity assay)
Type: biochemical
Details: for IC50: specific IC50 value lies within the given range, read-out: IC50 within range [nanomolar (nM)]; for inhibition at 10 µM: read-out: % inhibition of PDE9A2
Experimental: The PDE9A2 enzymatic activity assay was run as scintillation proximity assay (SPA), in general according to the protocol of the manufacturer (Amersham Biosciences, product number: TRKQ 7100).
As enzyme source, lysate (PBS with 1% Triton X-100 supplemented with protease inhibitors, cell debris removed by centrifugation at 13.000 rpm for 30 min) of SF 9 cell expressing the human PDE9A2 was used. The total protein amount included in the assay varied upon infection and production efficacy of the SF9 cells and lay in the range of 0.1-100 ng.
In general, the assay conditions were as follows: • total assay volume: 40 microliter • protein amount: 0.1-50 ng • substrate concentration (cGMP): 20 nanomolar; ˜1 mCi/l • incubation time: 60 min at room temperature • final DMSO concentration: 0.2-1%
The assays were run in 384-well format. The test reagents as well as the enzyme and the substrate were diluted in assay buffer. The assay buffer contained 50 mM Tris, 8.3 mM MgCl2, 1.7 mM EGTA, 0.1% BSA, 0.05% Tween 20; the pH of assay buffer was adjusted to 7.5. The reaction was stopped by applying a PDE9 specific inhibitor (e.g. compounds according to WO04099210 or WO04099211) in excess.
The activity of the positive control (minus the negative control=background) is set to 100% and activity in the presence of test compound is expressed relative to these 100%.

T1 sequence (O76083 1-533 isoform O76083-2): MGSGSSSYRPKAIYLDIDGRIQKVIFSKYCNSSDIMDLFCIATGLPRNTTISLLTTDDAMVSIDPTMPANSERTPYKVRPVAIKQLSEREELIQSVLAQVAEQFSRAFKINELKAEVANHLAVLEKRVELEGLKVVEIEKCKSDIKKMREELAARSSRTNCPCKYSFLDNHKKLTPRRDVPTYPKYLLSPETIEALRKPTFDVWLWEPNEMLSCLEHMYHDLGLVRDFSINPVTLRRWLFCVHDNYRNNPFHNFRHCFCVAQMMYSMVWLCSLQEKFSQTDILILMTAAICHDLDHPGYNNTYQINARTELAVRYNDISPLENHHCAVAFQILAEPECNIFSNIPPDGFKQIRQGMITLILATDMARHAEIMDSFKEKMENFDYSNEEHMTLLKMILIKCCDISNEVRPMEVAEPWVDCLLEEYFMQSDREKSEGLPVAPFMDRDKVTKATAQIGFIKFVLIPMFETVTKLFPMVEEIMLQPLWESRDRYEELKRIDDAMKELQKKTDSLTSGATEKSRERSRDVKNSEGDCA

SMILES: Cc1ccccc1-n1ncc2c(=O)[nH]c(C3CCCC(O)C3)nc21 (mixture of isomers) [Example 40]
IC50: 201 to 5000 nM

SMILES: Cc1ccccc1-n1ncc2c(=O)[nH]c(C3CCC(O)C(O)C3)nc21 (mixture of isomers) [Example 41]
IC50: 201 to 5000 nM

SMILES: CCOC(=O)C1CCCC(c2nc3c(cnn3C(CC)CC)c(=O)[nH]2)C1 (mixture of isomers) [Example 42]
IC50: 201 to 5000 nM

SMILES: CCC(CC)n1ncc2c(=O)[nH]c(C3CCC(C(=O)Nc4cc(OC)cc(OC)c4)CC3)nc21 (mixture of isomers) [Example 44]
IC50: 201 to 5000 nM

SMILES: O=C([C@H]1CC[C@@H]1c1nc2c(cnn2C2CCC(F)(F)CC2)c(=O)[nH]1)N1C[C@H]2CCC[C@H]2C1 (racemic) [Example 8]
pIC50: 6.70 to 9.00 | inhibition at 10 µM: 100%

SMILES: O=C([C@H]1CCCC[C@@H]1c1nc2c(cnn2C2CCC(F)(F)CC2)c(=O)[nH]1)N1CCOCC1 (racemic) [Example 20]
inhibition at 10 µM (at 10 micromolar concentration): 71% | IC50: 201 to 5000 nM

SMILES: O=C([C@H]1C[C@@H]1c1nc2c(cnn2C2CCC(F)(F)CC2)c(=O)[nH]1)N1CCCCC1 (racemic) [Example 23]
inhibition at 10 µM (at 10 micromolar concentration): 92% | IC50: 201 to 5000 nM

SMILES: O=C([C@H]1CCC[C@@H]1c1nc2c(cnn2C2CCC(F)(F)CC2)c(=O)[nH]1)N1CCCCC1 (racemic) [Example 25]
inhibition at 10 µM (at 10 micromolar concentration): 95% | IC50: 201 to 5000 nM

SMILES: Cc1noc(C2CCC2c2nc3c(cnn3C3CCC(F)(F)CC3)c(=O)[nH]2)n1 (racemic) [Example 32]
inhibition at 10 µM (at 10 micromolar concentration): 91% | IC50: 1 to 200 nM

SMILES: O=c1[nH]c([C@@H]2CC[C@H]2CO)nc2c1cnn2C1CCC(F)(F)CC1 (racemic) [Example 33]
inhibition at 10 µM (at 10 micromolar concentration): 83% | IC50: 201 to 5000 nM

SMILES: O=C([C@@H]1CC[C@@H]1c1nc2c(cnn2C2CCC(F)(F)CC2)c(=O)[nH]1)N1CCCCC1 (racemic) [Example 34]
inhibition at 10 µM (at 10 micromolar concentration): 57% | IC50: 201 to 5000 nM

SMILES: Cc1ccncc1-n1ncc2c(=O)[nH]c([C@H]3C[C@@H]3C)nc21 (racemic) [Example 36]
inhibition at 10 µM (at 10 micromolar concentration): 90% | IC50: 1 to 200 nM

SMILES: O=C(O)[C@H]1CC[C@@H]1c1nc2c(cnn2C2CCC(F)(F)CC2)c(=O)[nH]1 (racemic) [Example 46]
inhibition at 10 µM (at 10 micromolar concentration): 91% | IC50: 1 to 200 nM

SMILES: O=c1[nH]c([C@@H]2CC[C@H]2Cn2cccn2)nc2c1cnn2C1CCC(F)(F)CC1 (racemic) [Example 47]
inhibition at 10 µM (at 10 micromolar concentration): 89% | IC50: 201 to 5000 nM

SMILES: CCC(CC)n1ncc2c(=O)[nH]c(C3CCCC(C(=O)O)C3)nc21 (single isomer, unassigned) [Example 45]
IC50: 201 to 5000 nM

SMILES: CCOC(=O)[C@H]1C[C@H]1c1nc2c(cnn2C(CC)CC)c(=O)[nH]1 (stereo in doubt) [Example 43]
IC50: 201 to 5000 nM

SMILES: O=c1[nH]c(C2CCC2)nc2c1cnn2C1CCCC1 [Example 29]
inhibition at 10 µM (at 10 micromolar concentration): 98% | IC50: 1 to 200 nM

SMILES: O=c1[nH]c(C2CCC2)nc2c1cnn2C1CCC(F)(F)CC1 [Example 30]
inhibition at 10 µM (at 10 micromolar concentration): 96% | IC50: 1 to 200 nM

SMILES: Cc1ccncc1-n1ncc2c(=O)[nH]c(C3CCC3)nc21 [Example 31]
inhibition at 10 µM (at 10 micromolar concentration): 80% | IC50: 201 to 5000 nM

Results, then the molecule that gave them:

IC50: 1 to 200 nM
SMILES: Cc1ccccc1-n1ncc2c(=O)[nH]c(C3CC3C)nc21 (mixture of isomers) [Example 37]

IC50: 1 to 200 nM
SMILES: COC(=O)C1CCCC(c2nc3c(cnn3-c3ccccc3C)c(=O)[nH]2)C1 (mixture of isomers) [Example 38]

inhibition at 10 µM (at 10 micromolar concentration): 99% | IC50: 1 to 200 nM
SMILES: O=C([C@H]1CC[C@@H]1c1nc2c(cnn2C2CCC(F)(F)CC2)c(=O)[nH]1)N1CCOCC1 (racemic) [Example 1]

inhibition at 10 µM (at 10 micromolar concentration): 100% | IC50: 1 to 200 nM
SMILES: O=C([C@H]1CC[C@@H]1c1nc2c(cnn2C2CCC(F)(F)CC2)c(=O)[nH]1)N1CC[C@@H](F)C1 (racemic) [Example 2]

inhibition at 10 µM (at 10 micromolar concentration): 100% | IC50: 1 to 200 nM
SMILES: O=C([C@H]1CC[C@@H]1c1nc2c(cnn2C2CCC(F)(F)CC2)c(=O)[nH]1)N1CCC(F)(F)C1 (racemic) [Example 3]

inhibition at 10 µM (at 10 micromolar concentration): 97% | IC50: 1 to 200 nM
SMILES: O=C([C@H]1CC[C@@H]1c1nc2c(cnn2C2CCC(F)(F)CC2)c(=O)[nH]1)N1CC(F)(F)C(F)(F)C1 (racemic) [Example 4]

inhibition at 10 µM (at 10 micromolar concentration): 100% | IC50: 1 to 200 nM
SMILES: O=C([C@H]1CC[C@@H]1c1nc2c(cnn2C2CCC(F)(F)CC2)c(=O)[nH]1)N1CCC2(CC2)C1 (racemic) [Example 5]

inhibition at 10 µM (at 10 micromolar concentration): 101% | IC50: 1 to 200 nM
SMILES: O=C([C@H]1CC[C@@H]1c1nc2c(cnn2C2CCC(F)(F)CC2)c(=O)[nH]1)N1CCC(C(F)(F)F)CC1 (racemic) [Example 6]

inhibition at 10 µM (at 10 micromolar concentration): 102% | IC50: 1 to 200 nM
SMILES: CO[C@@H]1CCN(C(=O)[C@H]2CC[C@@H]2c2nc3c(cnn3C3CCC(F)(F)CC3)c(=O)[nH]2)C1 (racemic) [Example 7]

inhibition at 10 µM (at 10 micromolar concentration): 100% | IC50: 1 to 200 nM
SMILES: O=C([C@H]1CC[C@@H]1c1nc2c(cnn2C2CCC(F)(F)CC2)c(=O)[nH]1)N1CCC(F)(F)CC1 (racemic) [Example 9]

inhibition at 10 µM (at 10 micromolar concentration): 97% | IC50: 1 to 200 nM
SMILES: CC1(C)CCN(C(=O)[C@H]2CC[C@@H]2c2nc3c(cnn3C3CCC(F)(F)CC3)c(=O)[nH]2)CC1 (racemic) [Example 10]

inhibition at 10 µM (at 10 micromolar concentration): 94% | IC50: 1 to 200 nM
SMILES: O=C([C@H]1CC[C@@H]1c1nc2c(cnn2C2CCC(F)(F)CC2)c(=O)[nH]1)N1CCC(F)CC1 (racemic) [Example 11]

inhibition at 10 µM (at 10 micromolar concentration): 99% | IC50: 1 to 200 nM
SMILES: O=C([C@H]1CC[C@@H]1c1nc2c(cnn2C2CCC(F)(F)CC2)c(=O)[nH]1)N1CCCC1 (racemic) [Example 12]

inhibition at 10 µM (at 10 micromolar concentration): 97% | IC50: 1 to 200 nM
SMILES: COC1(C)CCN(C(=O)[C@H]2CC[C@@H]2c2nc3c(cnn3C3CCC(F)(F)CC3)c(=O)[nH]2)CC1 (racemic) [Example 13]

inhibition at 10 µM (at 10 micromolar concentration): 100% | IC50: 1 to 200 nM
SMILES: O=C([C@H]1CC[C@@H]1c1nc2c(cnn2C2CCC(F)(F)CC2)c(=O)[nH]1)N1CCCC(F)(F)C1 (racemic) [Example 14]

inhibition at 10 µM (at 10 micromolar concentration): 101% | IC50: 1 to 200 nM
SMILES: CC1CCN(C(=O)[C@H]2CC[C@@H]2c2nc3c(cnn3C3CCC(F)(F)CC3)c(=O)[nH]2)CC1 (racemic) [Example 15]

inhibition at 10 µM (at 10 micromolar concentration): 98% | IC50: 1 to 200 nM
SMILES: CC1(C)CN(C(=O)[C@H]2CC[C@@H]2c2nc3c(cnn3C3CCC(F)(F)CC3)c(=O)[nH]2)CCO1 (racemic) [Example 16]

inhibition at 10 µM (at 10 micromolar concentration): 99% | IC50: 1 to 200 nM
SMILES: CCN(CC)C(=O)[C@H]1CC[C@@H]1c1nc2c(cnn2C2CCC(F)(F)CC2)c(=O)[nH]1 (racemic) [Example 17]

inhibition at 10 µM (at 10 micromolar concentration): 96% | IC50: 1 to 200 nM
SMILES: O=C([C@H]1CC[C@@H]1c1nc2c(cnn2C2CCC(F)(F)CC2)c(=O)[nH]1)N1CCCCC1 (racemic) [Example 18]

inhibition at 10 µM (at 10 micromolar concentration): 92% | IC50: 1 to 200 nM
SMILES: O=C([C@H]1CCC[C@@H]1c1nc2c(cnn2C2CCC(F)(F)CC2)c(=O)[nH]1)N1CCC(F)(F)CC1 (racemic) [Example 19]

inhibition at 10 µM (at 10 micromolar concentration): 66% | IC50: 1 to 200 nM
SMILES: O=C([C@H]1CCCC[C@@H]1c1nc2c(cnn2C2CCC(F)(F)CC2)c(=O)[nH]1)N1CCCC1 (racemic) [Example 21]

inhibition at 10 µM (at 10 micromolar concentration): 90% | IC50: 1 to 200 nM
SMILES: C#CCNC(=O)C1CCC1c1nc2c(cnn2C2CCC(F)(F)CC2)c(=O)[nH]1 (racemic) [Example 22]

inhibition at 10 µM (at 10 micromolar concentration): 101% | IC50: 1 to 200 nM
SMILES: O=C([C@H]1CC[C@@H]1c1nc2c(cnn2C2CCCC2)c(=O)[nH]1)N1CCCCC1 (racemic) [Example 24]

inhibition at 10 µM (at 10 micromolar concentration): 99% | IC50: 1 to 200 nM
SMILES: O=C(C1CCCC1c1nc2c(cnn2C2CCCC2)c(=O)[nH]1)N1CCCCC1 (racemic) [Example 26]

inhibition at 10 µM (at 10 micromolar concentration): 98% | IC50: 1 to 200 nM
SMILES: CCOC(=O)[C@H]1CC[C@@H]1c1nc2c(cnn2C2CCCC2)c(=O)[nH]1 (racemic) [Example 27]

inhibition at 10 µM (at 10 micromolar concentration): 94% | IC50: 1 to 200 nM
SMILES: O=c1[nH]c([C@@H]2CC[C@H]2CN2CC(F)(F)C(F)(F)C2)nc2c1cnn2C1CCC(F)(F)CC1 (racemic) [Example 28]
